Type in all cases: cell-based
The test system of assay [1] is pAKT in T47D (PI3Kα H1047R mutant) cells. The assay is described as follows: Inhibition of pAKT (alphaLISA Surefire Ultra AKT 1/2/3 pS473) in T47D cells. To be noted: Homo sapiens, read-out: T47D (H1047R) pAKT 24 hr (IC50). In outline: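 AlphaLISA read-out of AKT pS473 in lysates after roughly 24 h compound exposure at 37° C in HBSS. Ten concentrations, 1:4 dilutions from a 10.4 μm top dose. Percent of control uses alpelisib at 3.125 μm as background and DMSO as vehicle; four-parameter curve gives IC50.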
A general note: Alpha assays give light when donor and acceptor beads are brought close together.

Assay [2] concerns T47D (PI3Kα H1047R mutant) cells. Briefly: Cell viability (CellTiter-Glo 2.0) in T47D cells. The conditions noted are these: Homo sapiens, approximately 72 hours. The procedure, abridged: (§1)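 IC50 values derive from four-parameter fits of CellTiter-Glo luminescence expressed as percent of vehicle control. Cells (T47D or SKBR3) were plated at 1000/well the day before dosing and incubated about 72 h at 37° C with a 10-point, 1:4 series starting at 10 μm.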
Background: ATP-based viability assays read luminescence as a measure of living cells.

Assay [3] deals with SKBR3 (PI3Kα wild type) cells. The assay is described as follows: Cell viability (CellTiter-Glo 2.0) in SKBR3 cells. To be noted: Homo sapiens. The procedure, abridged: as §1
Where [4] appears, read: T47D (PI3Kα H1047R mutant) cells, 24 hr compound incubation, alphaLISA pS473.
Where [5] appears, read: SK-BR-3, SKBR3 (PI3Kα wild type) cells, approximately 72 hours, CellTiter-Glo 2.0, read-out: SKBR3 (WT) Viability IC50.

SMILES strings stand for the structures. Read-outs that look alike come from different tables or passages of the source. A value given as a limit tells only on which side of the number the result lay.

The IC50 is the concentration that gives 50% inhibition. For the compound `Cc1cc([C@@H](C)Nc2ccc(Cl)nc2C(=O)O)c2nc(N3CC4(CC(F)C4)C3)c(C#N)nc2c1` [Example 258, (R)-6-chloro-3-((1-(2-cyano-3-(6-fluoro-2-azaspiro[3.3]heptan-2-yl)-7-methylquinoxalin-5-yl)ethyl)amino)picolinic acid], the IC50 stood at 0.00299 µM in assay [1] (setting [4]); 0.086 µM in assay [2] (T47D, 72 h); 8700 nM in assay [3] (setting [5]).
`Cc1cc([C@@H](C)Nc2ccc(Cl)nc2C(=O)O)c2nc(N3CCC(N4CCCCC4=O)CC3)c(C#N)nc2c1` [Example 202, (R)-6-chloro-3-((1-(2-cyano-7-methyl-3-(2-oxo-[1,4′-bipiperidin]-1′-yl)quinoxalin-5-yl)ethyl)amino)picolinic acid]: the IC50 in assay [1] (setting [4]) was found to be 0.0014 µM; in assay [2] (T47D, 72 h), 0.0764 µM; in assay [3] (setting [5]), 9920 nM.
Taken in the same sequence, the figures for `Cc1cc([C@@H](C)Nc2ccc(Cl)nc2C(=O)O)c2nc(N3CCc4cnccc4C3)c(C#N)nc2c1` [Example 216, (R)-6-chloro-3-((1-(2-cyano-3-(3,4-dihydro-2,6-naphthyridin-2(1H)-yl)-7-methylquinoxalin-5-yl)ethyl)amino)picolinic acid] were 0.00045 µM, 0.048 µM and over 10000 nM.
Turning to `Cc1cc([C@@H](C)Nc2ccc(Cl)nc2C(=O)O)c2nc(N3CCC(F)(F)CC3)c(C#N)nc2c1` [Example 5, (R)-6-chloro-3-((1-(2-cyano-3-(4,4-difluoropiperidin-1-yl)-7-methylquinoxalin-5-yl)ethyl)amino)picolinic acid], the IC50 in assay [1] (T47D, 24 h) worked out at 0.0008 µM; in assay [2], 0.0373 µM; in assay [3] (SK-BR-3, 72 h, read-out: SKBR3 (WT) Viability IC50 (nM)), 3970 nM.
On to `Cc1cc([C@@H](C)Nc2ccc(Cl)nc2C(=O)O)c2nc(N3CCC4(COC4)C3)c(C#N)nc2c1` [Example 240, (R)-6-chloro-3-((1-(2-cyano-7-methyl-3-(2-oxa-6-azaspiro[3.4]octan-6-yl)quinoxalin-5-yl)ethyl)amino)picolinic acid], for which the IC50 in assay [1] (setting [4]) was 0.0016 µM; in assay [2] (T47D, 72 h) it was 0.016 µM; in assay [3] (setting [5]) it was 7990 nM.
As to `COC1(C)CN(c2nc3c([C@@H](C)Nc4ccc(Cl)nc4C(=O)O)cc(C)cc3nc2C#N)C1` [Example 64, (R)-6-chloro-3-((1-(2-cyano-3-(3-methoxy-3-methylazetidin-1-yl)-7-methylquinoxalin-5-yl)ethyl)amino)picolinic acid], the IC50 in assay [1] (setting [4]) was 0.0013 µM; in assay [2] (T47D, 72 h), 0.044 µM; in assay [3] (setting [5]) it was over 10000 nM.
With `Cc1cc([C@@H](C)Nc2ccc(Cl)nc2C(=O)O)c2nc(N3CCN(c4cc(C)no4)CC3)c(C#N)nc2c1` [Example 200, (R)-6-chloro-3-((1-(2-cyano-7-methyl-3-(4-(3-methylisoxazol-5-yl)piperazin-1-yl)quinoxalin-5-yl)ethyl)amino)picolinic acid], the 50% inhibitory concentration (IC50) in assay [1] (setting [4]) is 0.0012 µM; in assay [2] (T47D, 72 h) it was 0.0172 µM; in assay [3] (setting [5]), 5470 nM.
The matching figures for `Cc1cc([C@@H](C)Nc2ccc(Cl)nc2C(=O)O)c2nc(N3CCC4(CCO4)CC3)c(C#N)nc2c1` [Example 250, (R)-6-chloro-3-((1-(2-cyano-7-methyl-3-(1-oxa-7-azaspiro[3.5]nonan-7-yl)quinoxalin-5-yl)ethyl)amino)picolinic acid]: 0.0012 µM, 0.037 µM and 4890 nM.
The matching figures for `C[C@@H](Nc1ccc(Cl)nc1C(=O)O)c1cc(C2CC2)cc2nc(C#N)c(N3CCC(F)(F)CC3)nc12` [Example 33, (R)-6-chloro-3-((1-(2-cyano-7-cyclopropyl-3-(4,4-difluoropiperidin-1-yl)quinoxalin-5-yl)ethyl)amino)picolinic acid]: 0.0043 µM, 0.0914 µM and 7430 nM.
Taken in the same sequence, the figures for `Cc1cc([C@@H](C)Nc2cccnc2C(=O)O)c2nc(N3CCC(F)(F)C3)c(C#N)nc2c1` [Example 204, (R)-3-((1-(2-cyano-3-(3,3-difluoropyrrolidin-1-yl)-7-methylquinoxalin-5-yl)ethyl)amino)picolinic acid] were 0.0581 µM, 0.393 µM and 1850 nM.
`Cc1cc([C@@H](C)Nc2ccc(Cl)nc2C(=O)O)c2nc(N3C[C@@H]4CO[C@@H](C4)C3)c(C#N)nc2c1` (single isomer, unassigned) [Example 243A]: the IC50 stood at 0.00034 µM in assay [1] (setting [4]); 0.062 µM in assay [2] (T47D, 72 h); 2860 nM in assay [3] (setting [5]).
As for `C[C@@H](Nc1ccccc1C(=O)O)c1cc(C#N)cc2nc(C#N)c(N3CCC(F)(F)CC3)nc12` [Example 28, (R)-2-((1-(2,7-dicyano-3-(4,4-difluoropiperidin-1-yl)quinoxalin-5-yl)ethyl)amino)benzoic acid], the concentration for half-maximal inhibition (IC50) in assay [1] (setting [4]) was 0.0483 µM; in assay [2] (T47D, 72 h), 2.14 µM; in assay [3] (setting [5]), over 10000 nM.
On to `Cc1cc(C(C)Nc2ccccc2C(=O)O)c2nc(N3Cc4ccccc4C3)c(C#N)nc2c1` (stereo not drawn) [Example 2, 2-((1-(2-cyano-3-(isoindolin-2-yl)-7-methylquinoxalin-5-yl)ethyl)amino)benzoic acid], for which the IC50 in assay [1] (setting [4]) is 0.0182 µM; in assay [2] (T47D, 72 h), 0.631 µM; in assay [3] (setting [5]), over 10000 nM.
Taken in the same sequence, the figures for `Cc1cc([C@@H](C)Nc2ccccc2C(=O)O)c2nc(N3CCC(F)(F)CC3)c(C#N)nc2c1` [Example 3, (R)-2-((1-(2-cyano-3-(4,4-difluoropiperidin-1-yl)-7-methylquinoxalin-5-yl)ethyl)amino)benzoate] were 0.0095 µM, 0.17 µM and over 10000 nM.
Taken in the same sequence, the figures for `Cc1cc([C@@H](C)Nc2ccc(Cl)nc2C(=O)O)c2nc(N3CCO[C@H]4C[C@H]43)c(C#N)nc2c1` (single isomer, unassigned) [Example 239B] were 0.0004 µM, 0.022 µM and 7260 nM.
Take `Cc1cc([C@@H](C)Nc2ccc(Cl)nc2C(=O)O)c2nc(N3CC4(CC[C@@H]4F)C3)c(C#N)nc2c1` (single isomer, unassigned) [Example 257A]: the IC50 in assay [1] (setting [4]) was determined as 0.0048 µM; in assay [2] (T47D, 72 h), 0.139 µM; in assay [3] (setting [5]), 3740 nM.
Taken in the same sequence, the figures for `Cc1cc([C@@H](C)Nc2ccc(Cl)nc2C(=O)O)c2nc(N3CCC(F)(F)C3)c(C#N)nc2c1` [Example 70, (R)-6-chloro-3-((1-(2-cyano-3-(3,3-difluoropyrrolidin-1-yl)-7-methylquinoxalin-5-yl)ethyl)amino)picolinic acid] were 0.0026 µM, 0.031 µM and 9650 nM.
Taken in the same sequence, the figures for `Cc1cc([C@@H](C)Nc2ccccc2C(=O)O)c2nc(C3CC3)c(C#N)nc2c1` [Example 67, (R)-2-((1-(2-cyano-3-cyclopropyl-7-methylquinoxalin-5-yl)ethyl)amino)benzoic acid] were 0.072 µM, 0.687 µM and 2770 nM.
For the compound `Cc1cc([C@H](C)Nc2ccccc2C(=O)O)c2nc(N3CCC(F)(F)CC3)c(C#N)nc2c1` [Example 4, (S)-2-((1-(2-cyano-3-(4,4-difluoropiperidin-1-yl)-7-methylquinoxalin-5-yl)ethyl)amino)benzoate], the IC50 in assay [1] (setting [4]) is 0.844 µM; in assay [2] (T47D, 72 h), 9.33 µM; in assay [3] (setting [5]), over 10000 nM.

The values above are taken from patent US20240391882A1 (Mirati Therapeutics, Inc., priority 2023, published 2024).
